Experimental data from patent EP0236307B1, “ANTIHYPERTENSIVE AGENTS, PHARMACEUTICAL COMPOSITIONS CONTAINING THEM AND PROCESSES FOR THE PREPARATION OF THE AGENTS AND COMPOSITIONS” (SCHERING CORPORATION, priority 1985, dated 1987).

System: angiotensin converting enzyme
Assay: In-vivo ACE inhibitory activity: inhibition of the pressor response to i.v. angiotensin I in anesthetised rats
Conditions: for ID50 (i.v.): intravenous dose required to inhibit the pressor response to i.v. angiotensin I by 50% in anesthetised rats; for ID50 (oral): oral dose required to inhibit the pressor response to i.v. angiotensin I by 50% in anesthetised rats
From the text: As mentioned before the compounds of this invention show valuable antihypertensive activity. It can be concluded from animal tests that these compounds have high angiotensin converting enzyme inhibitory activity (ACE inhibitory activity). The in-vivo ACE inhibitory activity of Compound A: 1- [N-[1(S)-carboxy-3- [4-(4-chloro-3-sulfamoyl benzamido) phenyl] propyl](S)-alanyl]cis,syn-octahydroindole-2-(S)-carboxylic acid Compound B: 1-[N-[1(S)-carboxy-3-[4-(4-chloro-3-N-methyl-sulfamoyl benzamido)phenyl]propyl]-(S)-alanyl]cis, syn-octahydroindole-2(S)-carboxylic acid is as follows: […]

Row | Structure (SMILES) | ID50 (i.v.) [µg/kg] | ID50 (oral) [mg/kg]
1 | CNS(=O)(=O)c1cc(C(=O)Nc2ccc(CC[C@H](N[C@@H](C)C(=O)N3[C@H](C(=O)O)C[C@@H]4CCCC[C@@H]43)C(=O)O)cc2)ccc1Cl [Compound B, 1-[N-[1(S)-carboxy-3-[4-(4-chloro-3-N-methyl-sulfamoylbenzamido)phenyl]propyl]-(S)-alanyl]cis, syn-octahydroindole-2(S)-carboxylic acid] | 33 | 3
2 | C[C@H](N[C@@H](CCc1ccc(NC(=O)c2ccc(Cl)c(S(N)(=O)=O)c2)cc1)C(=O)O)C(=O)N1[C@H](C(=O)O)C[C@@H]2CCCC[C@@H]21 [Compound A, 1-[N-[1(S)-carboxy-3-[4-(4-chloro-3-sulfamoylbenzamido)phenyl]propyl](S)-alanyl]cis,syn-octahydroindole-2-(S)-carboxylic acid] | 36 | 3
